The values below come from patent publication US20220389001A1, “ATF6 MODULATORS AND USES THEREOF” (Praxis Biotech LLC, priority 2019, published 2022).

For assay [1], the system named is ATF6. Put plainly: ERSE ATF6-luciferase assay in presence of Tg-induced ER stress (U2-OS ATF6 TRE-luciferase reporter cells). The assay is classed as cell-based, Human. The settings on record: Tg only = 100%; for ATF6 activity @ 1 μM [%] / activity at 1 µM: 1 μM test compound; for ATF6 activity @ 1 μM [%] / ATF6 activity @ 10 μM [%]: 8 hr; for ATF6 activity @ 10 μM [%] / activity at 10 µM: 10 μM test compound; for activity at 1 µM / activity at 10 µM: Homo sapiens, U2OS, 8 h. On the procedure:
(§1) To understand how exemplary compounds of the invention modulate the activity of ATF6 in absence or presence of endoplasmic reticulum (ER) stress, a Human bone osteosarcoma (U2-OS)-based TRE-luciferase reporter stable cell line was generated to determine the modulation of transcription of ATF6 target genes.
(§2) U2-OS cells were obtained from the American Type Culture Collection (ATCC HTB-96, ATCC Manassas, Va.) and were cultured with growing medium containing Dulbecco's Modified Eagle's Medium (DMEM) (Cat. No.: SH30023.02, HyClone) supplemented with fetal bovine serum (FBS) 10% (Cat. No.: 16000044, Gibco) and 1% penicillin-streptomycin antibiotic cocktail (Cat. No.: SV30010, Hyclone).
(§3) Cignal Lenti ATF6 luc reporter (Qiagen #CLS-6031L) was used to produce a stable cell line in U2-OS cells (U2-OS ATF6 TRE-luciferase reporter). The lenti ATF6 reporter is a preparation of replication incompetent, VSV-g pseudotyped lentivirus particles expressing the firefly luciferase gene under the control of a minimal (m)CMV promoter and tandem repeats of the ATF6 transcriptional response element (TRE). The number of response elements as well as the intervening sequence between response elements has been experimentally optimized to maximize the signal to noise ratio.
(§4) Exemplary compounds of the invention and reference compounds were prepared from powder as 10 mM stock solutions in dimethyl sulfoxide (DMSO; Cat. No. #D2650, Sigma Aldrich) and stored at −80° C. in presence of N2 neutral atmosphere.
(§5) For the primary screening, 40,000 U2-OS ATF6 TRE-luciferase reporter cells were plated in poly-D-lysine (Cat. No.: P2636, Sigma) pre-coated white 96-well plates (Thermo Scientific Nunc #136101) with 100 μL of growing medium. Cells were incubated in humidified chambers for 24 hr.
For testing exemplary compounds in presence of ER-stress, cells were pre-treated for 30 min with 50 μL growing medium containing either vehicle (DMSO), 1 or 10 μM test compound. After this pre-incubation, 50 μL of a solution containing 0.2 μM of the ER stress-inducer thapsigargin (Tg) was added to the appropriate wells. The Tg solution also contains vehicle or test compounds at 1 or 10 μM as indicated. The final concentration of DMSO in each well was kept at 0.3%. Plates were incubated for 8 hr in humidified chambers.
After the 8 hr incubation, plates were cooled down to room temperature for 10 min prior to the luciferase assays. Luciferase reactions were performed using Luciferase Assay System (Cat. No.: E4550, Promega). Briefly, each well was washed with 100 μl of PBS 1× and, then, 20 μl of lysis reagent was added into each well. Plates were shaken for 10 min and, then, 50 μl of Luciferase Assay Reagent was added to each well. Luminescence was determined by integration of 1 s with a gain of 110 in a Synergy 4 Microplate reader. All measurements were carried out in triplicate.
The average activity determined from the wells containing vehicle only (DMSO, 0% of ATF6 activity) was used as blank and subtracted from the rest of measurements. The average activity determined from the wells containing Tg only was used as 100% of ATF6 activity. The percentage of modulation of exemplary compounds was calculated by normalizing values to potential maximal activation with Tg.
ATF6 activities of exemplary compounds at 1 and 10 μM in presence Tg-induced ER stress tested in the U2-OS ATF6 TRE-luciferase reporter cells were determined and are shown in Table 2.

In assay [2] the test system is ATF6. Put plainly: ERSE ATF6-luciferase assay in absence of ER stress (U2-OS ATF6 TRE-luciferase reporter cells). The assay is classed as cell-based, Human. Conditions: 8 hr, normalized to maximal activation with Tg; for ATF6 activity @ 1 μM- No Tg [%]: 1 μM test compound; for ATF6 activity @ 10 μM- No Tg [%]: 10 μM test compound. The method, then: as §1, §2, §3, §4, §5
For testing exemplary compounds in absence of ER-stress, cells were treated for 8 hr with 100 μL growing medium containing either vehicle (DMSO), 1 or 10 μM test compound or 0.1 μM Tg. The final concentration of DMSO in each well was kept at 0.3%. Plates were incubated in humidified chambers.
After 8 hr of incubation, plates were cooled down to room temperature for 10 min prior to luciferase assays. Luciferase reactions were performed as above. Luminescence was read by integration of 1 s with a gain of 110 in a Synergy 4 Microplate reader. All measurements were carried out in triplicate.
The average activity determined from the wells containing vehicle only (DMSO, 0% of ATF6 activity) was used as blank and subtracted from the rest of measurements. The percentage of modulation of exemplary compound was calculated by normalizing values to potential maximal activation with Tg.
ATF6 activities of exemplary compounds at 1 and 10 μM in absence of Tg-induced ER stress in the U2-OS ATF6 TRE-luciferase reporter cells were determined and are shown in Table 3.

As for `O=C(Nc1cnn(Cc2ccc(C(F)(F)F)cc2C(F)(F)F)c1)c1cc(-c2ccco2)on1` [Ceapin-A7, reference compound], in assay [1], the “ATF6 activity @ 1 μM [%]” value is listed as “--- (--- refers to <50% at 1 or 10 μM test compound)” and the “ATF6 activity @ 10 μM [%]” value is “--- (--- refers to <50% at 1 or 10 μM test compound)”.

Regarding `O=C(Nc1cnn(C2CCc3cc(C(F)(F)F)ccc32)c1)c1cc(-c2cnccn2)on1` (stereo not shown) [Compound 1-12, 5-(pyrazin-2-yl)-N-(1-(5-(trifluoromethyl)-2,3-dihydro-1H-inden-1-yl)-1H-pyrazol-4-yl)isoxazole-3-carboxamide], in assay [1], the activity at 1 µM was in the range of 75 to 100% and the activity at 10 µM fell in the range of 75 to 100%.

On to `CC(c1ccc(F)cc1Cl)n1cc(NC(=O)c2cc(-c3ccco3)on2)cn1` (stereo not shown) [Compound 1-6, N-(1-(1-(2-chloro-4-fluorophenyl)ethyl)-1H-pyrazol-4-yl)-5-(furan-2-yl)isoxazole-3-carboxamide], for which, in assay [1], the activity at 1 µM lay in the range of 100 to 125% and the activity at 10 µM is 75 to 100%.

As to `CC(c1c(F)cccc1Cl)n1cc(NC(=O)c2cc(-c3ccco3)on2)cn1` (single isomer, unassigned) [Compound 1-14, N-(1-(1-(2-chloro-6-fluorophenyl)ethyl)-1H-pyrazol-4-yl)-5-(furan-2-yl)isoxazole-3-carboxamide], in assay [1], the “ATF6 activity @ 1 μM [%]” value is given as “+++ (+++ refers to >150% at 1 or 10 μM test compound)” and the “ATF6 activity @ 10 μM [%]” value was “+++ (+++ refers to >150% at 1 or 10 μM test compound)”. For the same compound, in assay [2], the “ATF6 activity @ 1 μM- No Tg [%]” value was “+ (+ refers to 0% < % activity < 25% at 1 or 10 μM test compound)” and the “ATF6 activity @ 10 μM- No Tg [%]” value was “+ (+ refers to 0% < % activity < 25% at 1 or 10 μM test compound)”.

As for `CC(c1ccc(C(F)(F)F)cc1C(F)(F)F)n1cc(NC(=O)c2cc(-c3cnccn3)no2)cn1` (single isomer, unassigned) [Compound 1-25, N-(1-(1-(2,4-bis(trifluoromethyl)phenyl)ethyl)-1H-pyrazol-4-yl)-3-(pyrazin-2-yl)isoxazole-5-carboxamide], in assay [1], the “ATF6 activity @ 1 μM [%]” value was “- (- refers to 75% < % activity < 100% at 1 or 10 μM)” and the “ATF6 activity @ 10 μM [%]” value is on record as “- (- refers to 75% < % activity < 100% at 1 or 10 μM)”.

`CC(c1c(F)cccc1Cl)n1cc(NC(=O)c2cc(-c3ccco3)on2)cn1` (single isomer, unassigned) [Compound 1-15, N-(1-(1-(2-chloro-6-fluorophenyl)ethyl)-1H-pyrazol-4-yl)-5-(furan-2-yl)isoxazole-3-carboxamide]: in assay [1], the “ATF6 activity @ 1 μM [%]” value is “+ (+ refers to 100% < % activity < 125% at 1 or 10 μM)” and the “ATF6 activity @ 10 μM [%]” value is “+ (+ refers to 100% < % activity < 125% at 1 or 10 μM)”. In assay [2], the “ATF6 activity @ 1 μM- No Tg [%]” value is on record as “+ (+ refers to 0% < % activity < 25% at 1 or 10 μM test compound)” and the “ATF6 activity @ 10 μM- No Tg [%]” value is reported as “+ (+ refers to 0% < % activity < 25% at 1 or 10 μM test compound)”.

In the case of `CC(c1c(Cl)cccc1Cl)n1cc(NC(=O)c2cc(-c3ccco3)on2)cn1` (stereo not shown) [Compound 1-1, N-(1-(1-(2,6-dichlorophenyl)ethyl)-1H-pyrazol-4-yl)-5-(furan-2-yl)isoxazole-3-carboxamide], in assay [2], the “ATF6 activity @ 1 μM- No Tg [%]” value is “+ (+ refers to 0% < % activity < 25% at 1 or 10 μM test compound)” and the “ATF6 activity @ 10 μM- No Tg [%]” value is given as “+ (+ refers to 0% < % activity < 25% at 1 or 10 μM test compound)”.

In the case of `CC(c1ccc(F)cc1F)n1cc(NC(=O)c2cc(-c3ccco3)on2)cn1` (single isomer, unassigned) [Compound 1-17, N-(1-(1-(2,4-difluorophenyl)ethyl)-1H-pyrazol-4-yl)-5-(furan-2-yl)isoxazole-3-carboxamide], in assay [1], the “ATF6 activity @ 1 μM [%]” value was “+ (+ refers to 100% < % activity < 125% at 1 or 10 μM)” and the “ATF6 activity @ 10 μM [%]” value was “+ (+ refers to 100% < % activity < 125% at 1 or 10 μM)”. Moreover, in assay [2], the “ATF6 activity @ 1 μM- No Tg [%]” value is recorded as “+ (+ refers to 0% < % activity < 25% at 1 or 10 μM test compound)” and the “ATF6 activity @ 10 μM- No Tg [%]” value is given as “+ (+ refers to 0% < % activity < 25% at 1 or 10 μM test compound)”.

Take `CC(c1c(Cl)cccc1Cl)n1cc(NC(=O)c2cc(-c3cccs3)on2)cn1` (stereo not shown) [Compound 1-13, N-(1-(1-(2,6-dichlorophenyl)ethyl)-1H-pyrazol-4-yl)-5-(thiophen-2-yl)isoxazole-3-carboxamide]: in assay [1], the activity at 1 µM lay in the range of 75 to 100% and the activity at 10 µM was in the range of 100 to 125%. Besides, in assay [2], the “ATF6 activity @ 1 μM- No Tg [%]” value is given as “+ (+ refers to 0% < % activity < 25% at 1 or 10 μM test compound)” and the “ATF6 activity @ 10 μM- No Tg [%]” value is “+ (+ refers to 0% < % activity < 25% at 1 or 10 μM test compound)”.

Take `CC(c1c(F)cccc1Cl)n1cc(NC(=O)c2cc(-c3ccco3)on2)cn1` (stereo not shown) [Compound 1-4, N-(1-(1-(2-chloro-6-fluorophenyl)ethyl)-1H-pyrazol-4-yl)-5-(furan-2-yl)isoxazole-3-carboxamide]: in assay [1], the activity at 1 µM was over 150% and the activity at 10 µM is over 150%.

Take `CC(c1ccc(C(F)(F)F)cc1C(F)(F)F)n1cc(NC(=O)c2cc(-c3cnccn3)no2)cn1` (single isomer, unassigned) [Compound 1-26, N-(1-(1-(2,4-bis(trifluoromethyl)phenyl)ethyl)-1H-pyrazol-4-yl)-3-(pyrazin-2-yl)isoxazole-5-carboxamide]: in assay [1], the “ATF6 activity @ 1 μM [%]” value was “--- (--- refers to <50% at 1 or 10 μM test compound)” and the “ATF6 activity @ 10 μM [%]” value is given as “--- (--- refers to <50% at 1 or 10 μM test compound)”.

As for `CC(c1ccc(F)cc1F)n1cc(NC(=O)c2cc(-c3ccco3)on2)cn1` (stereo not shown) [Compound 1-5, N-(1-(1-(2,4-difluorophenyl)ethyl)-1H-pyrazol-4-yl)-5-(furan-2-yl)isoxazole-3-carboxamide], in assay [1], the activity at 1 µM lay within 100 to 125% and the activity at 10 µM was over 150%.

Regarding `CC(c1ccc(F)cc1F)n1cc(NC(=O)c2cc(-c3ccco3)on2)cn1` (single isomer, unassigned) [Compound 1-16, N-(1-(1-(2,4-difluorophenyl)ethyl)-1H-pyrazol-4-yl)-5-(furan-2-yl)isoxazole-3-carboxamide], in assay [1], the “ATF6 activity @ 10 μM [%]” value is listed as “++ (++ refers to 125% < % activity < 150% at 1 or 10 μM test compound)” and the activity at 1 µM was 100 to 125%. For the same compound, in assay [2], the “ATF6 activity @ 1 μM- No Tg [%]” value was “+ (+ refers to 0% < % activity < 25% at 1 or 10 μM test compound)” and the “ATF6 activity @ 10 μM- No Tg [%]” value was “+ (+ refers to 0% < % activity < 25% at 1 or 10 μM test compound)”.

With `CC(c1ccc(C(F)(F)F)cc1C(F)(F)F)n1cc(NC(=O)c2cc(-c3cnccn3)no2)cn1` (stereo not shown) [Compound 1-11, N-(1-(1-(2,4-bis(trifluoromethyl)phenyl)ethyl)-1H-pyrazol-4-yl)-3-(pyrazin-2-yl)isoxazole-5-carboxamide], in assay [1], the activity at 1 µM fell in the range of 50 to 75% and the activity at 10 µM fell in the range of 50 to 75%.

On to `O=C(Nc1cnn(C2CCCc3ccccc32)c1)c1cc(-c2ccco2)on1` (stereo not shown) [Compound 1-3, 5-(furan-2-yl)-N-(1-(1,2,3,4-tetrahydronaphthalen-1-yl)-1H-pyrazol-4-yl)isoxazole-3-carboxamide], for which, in assay [1], the activity at 1 µM lay within 100 to 125% and the activity at 10 µM was in the range of 125 to 150%.
